Structures are written as SMILES. Starred links: 1 amine or outer side, 2 acyl side, 3 side chain; linkers in the order of their positions; H or OH if unused. Positions of bridges follow the written chain, without caps; N, C: chain ends. Non-standard residues stand in square brackets, D forms with d. Residues, ends and D or L forms follow the SMILES beside them. *: point of attachment. NH(1-deoxy-D-glucityl) = OC[C@@H](O)[C@@H](O)[C@H](O)[C@@H](O)CN*; DOTA = O=C(O)CN1CCN(CC(=O)O)CCN(CC(=O)*)CCN(CC(=O)O)CC1; Pyridine(2,6-diCH2) = c1cc(C[*:1])nc(C[*:2])c1; Pyridine(3,5-bisCH2) = c1ncc(C[*:2])cc1C[*:1]; Bip = N[C@@H](Cc1ccc(-c2ccccc2)cc1)C(=O)O; Dip = N[C@H](C(=O)O)C(c1ccccc1)c1ccccc1; mXylylene = c1cc(C[*:1])cc(C[*:2])c1; X2 = O=C(CN1CCC(N[*:1])CC1)[*:2]; αMeL = CC(C)C[C@](C)(N)C(=O)O; NMeS = CN[C@@H](CO)C(=O)O; Bn = c1ccc(C*)cc1

For the first assay, the target named is T1, CAIX-expressing human HT-29 colorectal cancer cells (Homo sapiens, UniProt Q16790).
T1 construct: CAIX-expressing human HT-29 colorectal cancer cells; host or cells: HT-29 human colorectal cancer cells
Put plainly: FACS binding assay (IC50 determination, competition with tracer 3BP-2776 or 3BP-4149).
Conditions: not given
An outline of the steps: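 HT-29 cells in FACS buffer (PBS, 1% FCS) at 500.000 cells/ml were exposed to compounds competing with a labelled tracer, with biotinylated compounds detected by 1 μg/mL APC-streptavidin for 30 min on ice. APC/Cy5 median fluorescence was read by flow cytometry and IC50 derived by 4PL fit.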
A general note: In flow cytometry, cells or beads pass a laser one at a time.
For `CC(C)C[C@@H]1NC(=O)[C@H](Cc2c[nH]c3ccccc23)NC(=O)[C@H](Cc2ccc(OCc3ccccc3)cc2)NC(=O)[C@H]2CCCN2C(=O)[C@H](CCC(=O)O)NC(=O)[C@@H](NC(=O)[C@H](Cc2ccc(O)cc2)NC(=O)[C@@H](NC(=O)CN2CCC(NC(=O)CN3CCN(CC(=O)O)CCN(CC(=O)O)CCN(CC(=O)O)CC3)CC2)C(C)C)CSCc2cccc(c2)CSC[C@@H](C(N)=O)NC(=O)[C@H](CO)NC(=O)[C@H](Cc2c[nH]c3ccccc23)NC(=O)[C@H]([C@@H](C)O)NC1=O` [3BP-4127] ({DOTA}-[X2]VYCE[dP]Y(Bn)WLTWSC-NH2; linker 4-13 via mXylylene), the IC50 is < 10 nM. With `CC(C)C[C@@H]1NC(=O)[C@H](Cc2ccc(OCc3ccccc3)cc2)NC(=O)[C@H](CC(=O)O)NC(=O)[C@H]2CCCN2C(=O)[C@H](CCC(=O)O)NC(=O)[C@@H](NC(=O)[C@H](Cc2ccc(O)cc2)NC(=O)[C@@H](NC(=O)CN2CCC(NC(=O)CN3CCN(CC(=O)O)CCN(CC(=O)O)CCN(CC(=O)O)CC3)CC2)C(C)C)CSCc2cccc(c2)CSC[C@@H](C(N)=O)NC(=O)[C@H](CO)NC(=O)[C@H](Cc2c[nH]c3ccccc23)NC(=O)[C@H]([C@@H](C)O)NC1=O` [3BP-4137] ({DOTA}-[X2]VYCE[dP]DY(Bn)LTWSC-NH2; linker 4-13 via mXylylene), the IC50 fell in the range of 10 to 79.4 nM.

Staying with this assay, now noted: FACS binding assay, HT-29 cells, competition with tracer 3BP-2776 (10 nM, biotin-labeled), 4° C., 1 hour; read-out: pIC50 category (activity) (converted).
As for `CC(C)C[C@]1(C)NC(=O)[C@H](Cc2c[nH]c3ccccc23)NC(=O)[C@H](CC(=O)O)NC(=O)[C@H]2CCCN2C(=O)[C@H](CCC(=O)O)NC(=O)[C@@H](NC(=O)[C@H](Cc2ccc(O)cc2)NC(=O)[C@@H](NC(=O)CN2CCC(NC(=O)CN3CCN(CC(=O)O)CCN(CC(=O)O)CCN(CC(=O)O)CC3)CC2)C(C)C)CSCc2cccc(c2)CSC[C@@H](C(N)=O)NC(=O)[C@H](CO)NC(=O)[C@H](Cc2c[nH]c3ccccc23)NC(=O)[C@H]([C@@H](C)O)NC1=O` [3BP-4106] ({DOTA}-[X2]VYCE[dP]DW[αMeL]TWSC-NH2; linker 4-13 via mXylylene), the IC50 was 10 to 79.4 nM. Same read-out and setting: the same measure for `CC(C)C[C@@H]1NC(=O)[C@H](Cc2c[nH]c3ccccc23)NC(=O)[C@H](CC(=O)O)NC(=O)[C@H]2CCCN2C(=O)[C@H](CO)N(C)C(=O)[C@@H](NC(=O)[C@H](Cc2ccc(O)cc2)NC(=O)[C@@H](NC(=O)CN2CCC(NC(=O)CN3CCN(CC(=O)O)CCN(CC(=O)O)CCN(CC(=O)O)CC3)CC2)C(C)C)CSCc2cccc(c2)CSC[C@@H](C(N)=O)NC(=O)[C@H](CO)NC(=O)[C@H](Cc2c[nH]c3ccccc23)NC(=O)[C@H]([C@@H](C)O)NC1=O` [3BP-4108] ({DOTA}-[X2]VYC[NMeS][dP]DWLTWSC-NH2; linker 4-13 via mXylylene): < 10 nM; for `CC(C)C[C@@H]1NC(=O)[C@H](Cc2c[nH]c3ccccc23)NC(=O)[C@H](CC(=O)O)NC(=O)[C@H]2CCCN2C(=O)[C@H](CCC(=O)NC[C@H](O)[C@@H](O)[C@H](O)[C@H](O)CO)NC(=O)[C@@H](NC(=O)[C@H](Cc2ccc(O)cc2)NC(=O)[C@@H](NC(=O)CN2CCC(NC(=O)CN3CCN(CC(=O)O)CCN(CC(=O)O)CCN(CC(=O)O)CC3)CC2)C(C)C)CSCc2cccc(c2)CSC[C@@H](C(N)=O)NC(=O)[C@H](CO)NC(=O)[C@H](Cc2c[nH]c3ccccc23)NC(=O)[C@H]([C@@H](C)O)NC1=O` [3BP-4113] ({DOTA}-[X2]VYCE(NH(1-deoxy-D-glucityl))[dP]DWLTWSC-NH2; linker 4-13 via mXylylene): < 10 nM; for `CC(C)C[C@@H]1NC(=O)[C@H](Cc2c[nH]c3ccccc23)NC(=O)[C@H](CC(=O)O)NC(=O)[C@H]2CCCCNC(=O)CC[C@H](NC1=O)C(=O)N[C@@H](Cc1c[nH]c3ccccc13)C(=O)N[C@@H](CO)C(=O)N[C@H](C(N)=O)CSCc1cccc(c1)CSC[C@H](NC(=O)[C@H](Cc1ccc(O)cc1)NC(=O)[C@@H](NC(=O)CN1CCC(NC(=O)CN3CCN(CC(=O)O)CCN(CC(=O)O)CCN(CC(=O)O)CC3)CC1)C(C)C)C(=O)N[C@@H](CCC(=O)O)C(=O)N2` [3BP-4114] ({DOTA}-[X2]VYCE[dK]DWLEWSC-NH2; linker 4-13 via mXylylene; lactam 6-10): 10 to 79.4 nM. Still for that read-out and setting: next, `CC(C)C[C@@H]1NC(=O)[C@H](Cc2c[nH]c3ccccc23)NC(=O)[C@H](CO)NC(=O)[C@H]2CCCCNC(=O)CC[C@H](NC1=O)C(=O)N[C@@H](Cc1c[nH]c3ccccc13)C(=O)N[C@@H](CO)C(=O)N[C@H](C(N)=O)CSCc1cccc(c1)CSC[C@H](NC(=O)[C@H](Cc1ccc(O)cc1)NC(=O)[C@@H](NC(=O)CN1CCC(NC(=O)CN3CCN(CC(=O)O)CCN(CC(=O)O)CCN(CC(=O)O)CC3)CC1)C(C)C)C(=O)N[C@@H](CCC(=O)O)C(=O)N2` [3BP-4115] ({DOTA}-[X2]VYCE[dK]SWLEWSC-NH2; linker 4-13 via mXylylene; lactam 6-10): 10 to 79.4 nM; `CC(C)C[C@@H]1NC(=O)[C@H](Cc2c[nH]c3ccccc23)NC(=O)[C@H](CCC(=O)NC[C@H](O)[C@@H](O)[C@H](O)[C@H](O)CO)NC(=O)[C@H]2CCCN2C(=O)[C@H](CCC(=O)O)NC(=O)[C@@H](NC(=O)[C@H](Cc2ccc(O)cc2)NC(=O)[C@@H](NC(=O)CN2CCC(NC(=O)CN3CCN(CC(=O)O)CCN(CC(=O)O)CCN(CC(=O)O)CC3)CC2)C(C)C)CSCc2cccc(c2)CSC[C@@H](C(N)=O)NC(=O)[C@H](CO)NC(=O)[C@H](Cc2c[nH]c3ccccc23)NC(=O)[C@H]([C@@H](C)O)NC1=O` [3BP-4120, DOTA-APAc-Val-Tyr-[Cys(3MeBn)-Glu-pro-Glu(AGLU)-Trp-Leu-Thr-Trp-Ser-Cys]-NH2] ({DOTA}-[X2]VYCE[dP]E(NH(1-deoxy-D-glucityl))WLTWSC-NH2; linker 4-13 via mXylylene): 10 to 79.4 nM; `CC(C)C[C@@H]1NC(=O)[C@H](CSCc2ccccc2)NC(=O)[C@H](CC(=O)O)NC(=O)[C@H]2CCCN2C(=O)[C@H](CCC(=O)O)NC(=O)[C@@H](NC(=O)[C@H](Cc2ccc(O)cc2)NC(=O)[C@@H](NC(=O)CN2CCC(NC(=O)CN3CCN(CC(=O)O)CCN(CC(=O)O)CCN(CC(=O)O)CC3)CC2)C(C)C)CSCc2cccc(c2)CSC[C@@H](C(N)=O)NC(=O)[C@H](CO)NC(=O)[C@H](Cc2c[nH]c3ccccc23)NC(=O)[C@H]([C@@H](C)O)NC1=O` [3BP-4130] ({DOTA}-[X2]VYCE[dP]DC(Bn)LTWSC-NH2; linker 4-13 via mXylylene): < 10 nM. As for `CC(C)C[C@@H]1NC(=O)[C@H](Cc2ccc(-c3ccccc3)cc2)NC(=O)[C@H](CC(=O)O)NC(=O)[C@H]2CCCN2C(=O)[C@H](CCC(=O)O)NC(=O)[C@@H](NC(=O)[C@H](Cc2ccc(O)cc2)NC(=O)[C@@H](NC(=O)CN2CCC(NC(=O)CN3CCN(CC(=O)O)CCN(CC(=O)O)CCN(CC(=O)O)CC3)CC2)C(C)C)CSCc2cccc(c2)CSC[C@@H](C(N)=O)NC(=O)[C@H](CO)NC(=O)[C@H](Cc2c[nH]c3ccccc23)NC(=O)[C@H]([C@@H](C)O)NC1=O` [3BP-4131] ({DOTA}-[X2]VYCE[dP]D[Bip]LTWSC-NH2; linker 4-13 via mXylylene), the IC50 is < 10 nM. With `CC(C)C[C@@H]1NC(=O)[C@H](C(c2ccccc2)c2ccccc2)NC(=O)[C@H](CC(=O)O)NC(=O)[C@H]2CCCN2C(=O)[C@H](CCC(=O)O)NC(=O)[C@@H](NC(=O)[C@H](Cc2ccc(O)cc2)NC(=O)[C@@H](NC(=O)CN2CCC(NC(=O)CN3CCN(CC(=O)O)CCN(CC(=O)O)CCN(CC(=O)O)CC3)CC2)C(C)C)CSCc2cccc(c2)CSC[C@@H](C(N)=O)NC(=O)[C@H](CO)NC(=O)[C@H](Cc2c[nH]c3ccccc23)NC(=O)[C@H]([C@@H](C)O)NC1=O` [3BP-4132] ({DOTA}-[X2]VYCE[dP]D[Dip]LTWSC-NH2; linker 4-13 via mXylylene), the IC50 is < 10 nM. In the case of `CC(C)C[C@@H]1NC(=O)[C@H](Cc2ccc(O)cc2)NC(=O)[C@H](CC(=O)O)NC(=O)[C@H]2CCCN2C(=O)[C@H](CCC(=O)O)NC(=O)[C@@H](NC(=O)[C@H](Cc2ccc(O)cc2)NC(=O)[C@@H](NC(=O)CN2CCC(NC(=O)CN3CCN(CC(=O)O)CCN(CC(=O)O)CCN(CC(=O)O)CC3)CC2)C(C)C)CSCc2cccc(c2)CSC[C@@H](C(N)=O)NC(=O)[C@H](CO)NC(=O)[C@H](Cc2c[nH]c3ccccc23)NC(=O)[C@H]([C@@H](C)O)NC1=O` [3BP-4136] ({DOTA}-[X2]VYCE[dP]DYLTWSC-NH2; linker 4-13 via mXylylene), the IC50 is < 10 nM. The same measure, in the same setting: the same measure for `CC(C)C[C@@H]1NC(=O)[C@H](Cc2c[nH]c3ccccc23)NC(=O)[C@H](CC(=O)O)NC(=O)[C@H]2CCCN2C(=O)[C@H](CCC(=O)O)NC(=O)[C@@H](NC(=O)[C@H](Cc2ccc(O)cc2)NC(=O)[C@@H](NC(=O)CN2CCC(NC(=O)CN3CCN(CC(=O)O)CCN(CC(=O)O)CCN(CC(=O)O)CC3)CC2)C(C)C)CSCc2cccc(n2)CSC[C@@H](C(N)=O)NC(=O)[C@H](CO)NC(=O)[C@H](Cc2c[nH]c3ccccc23)NC(=O)[C@H]([C@@H](C)O)NC1=O` [3BP-4140] ({DOTA}-[X2]VYCE[dP]DWLTWSC-NH2; linker 4-13 via Pyridine(2,6-diCH2)): 10 to 79.4 nM; for `CC(C)C[C@@H]1NC(=O)[C@H](Cc2c[nH]c3ccccc23)NC(=O)[C@H](CC(=O)O)NC(=O)[C@H]2CCCN2C(=O)[C@H](CCC(=O)O)NC(=O)[C@@H](NC(=O)[C@H](Cc2ccc(O)cc2)NC(=O)[C@@H](NC(=O)CN2CCC(NC(=O)CN3CCN(CC(=O)O)CCN(CC(=O)O)CCN(CC(=O)O)CC3)CC2)C(C)C)CSCc2cncc(c2)CSC[C@@H](C(N)=O)NC(=O)[C@H](CO)NC(=O)[C@H](Cc2c[nH]c3ccccc23)NC(=O)[C@H]([C@@H](C)O)NC1=O` [3BP-4141] ({DOTA}-[X2]VYCE[dP]DWLTWSC-NH2; linker 4-13 via Pyridine(3,5-bisCH2)): 100 to 794 nM.

Values taken from patent US20250339569A1, “CARBONIC ANHYDRASE IX LIGANDS” (priority 2021, published 2025).
